In ChEMBL document CHEMBL1201862, “PubChem BioAssay data set” (2004):
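Assay format: 96-well plates, 48-hour exposure. GI50: concentration for 50% inhibition of growth.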 Active and inactive are the calls of the source. Rule as the data show it: active = GI50 up to about 1.1 µM and inactive = higher.

Legend:
Experiment in all cases: NCI anticancer screen, dose series, 48 h
COLO 205 = test system: COLO 205
HCC 2998 = test system: HCC 2998
IGROV-1 = test system: IGROV-1
SK-OV-3 = test system: SK-OV-3
SNB-75 = test system: SNB-75
MOLT-4 = test system: MOLT-4
SW-620 = test system: SW-620
UACC-62 = test system: UACC-62
M14 = test system: M14
HT-29 = test system: HT-29
KM12 = test system: KM12
K562 = test system: K562
SF-268 = test system: SF-268
SK-MEL-28 = test system: SK-MEL-28
EKVX = test system: EKVX

Measured: GI50

O=C1OC(=O)c2c1nc1ccccc1c2-c1ccccc1
inactive: COLO 205 > 100 µM | HCC 2998 > 100 µM | IGROV-1 > 100 µM | SK-OV-3 > 100 µM | SNB-75 > 100 µM | MOLT-4 > 100 µM | SW-620 > 100 µM | UACC-62 > 100 µM | M14 > 100 µM | HT-29 > 100 µM | KM12 > 100 µM | K562 > 100 µM | SF-268 > 100 µM

O=C(O)C1=C(O)C(C(=O)O)C23CCCCCCCCCCC12C(C(=O)O)C(O)=C3C(=O)O (centres undefined)
inactive: COLO 205 > 100 µM | HCC 2998 > 100 µM | IGROV-1 > 100 µM | SK-OV-3 > 100 µM | SK-MEL-28 > 100 µM | MOLT-4 > 100 µM | SW-620 > 100 µM | EKVX > 100 µM | M14 > 100 µM | HT-29 > 100 µM | KM12 > 100 µM | K562 > 100 µM | SF-268 > 100 µM

CC1(S)CC2C(CC1Sc1ccccc1)C2(C)C (centres undefined)
inactive: COLO 205 > 100 µM | HCC 2998 > 100 µM | IGROV-1 > 100 µM | SK-OV-3 > 100 µM | SNB-75 > 100 µM | SK-MEL-28 > 100 µM | MOLT-4 > 100 µM | EKVX > 100 µM | M14 > 100 µM | HT-29 > 100 µM | KM12 > 100 µM | K562 > 100 µM | SF-268 > 100 µM

CS(=O)(=O)OC1CCC2(C#N)CCC1C2=O (centres undefined)
inactive: COLO 205 70.8 µM | HCC 2998 46.1 µM | IGROV-1 > 100 µM | SK-OV-3 > 100 µM | SNB-75 > 100 µM | SK-MEL-28 > 100 µM | MOLT-4 > 100 µM | UACC-62 > 100 µM | EKVX > 100 µM | M14 71.3 µM | HT-29 > 100 µM | KM12 > 100 µM | K562 > 100 µM | SF-268 > 100 µM

CC(C)c1cccc(C(C)C)c1NC(=O)C(=O)C(C(=O)c1ccc2ccccc2c1)C1OC(=O)c2ccccc21 (centres undefined)
inactive: COLO 205 > 100 µM | HCC 2998 > 100 µM | IGROV-1 > 100 µM | SK-OV-3 > 100 µM | SK-MEL-28 > 100 µM | MOLT-4 > 100 µM | SW-620 > 100 µM | UACC-62 > 100 µM | EKVX 24.5 µM | M14 > 100 µM | HT-29 > 100 µM | KM12 > 100 µM | K562 > 100 µM | SF-268 > 100 µM

CC(=O)Nc1ccc(/C=c2\sc3nnc(/C=C/c4ccccc4)n3c2=O)cc1
inactive: COLO 205 > 50 µM | HCC 2998 > 50 µM | IGROV-1 > 50 µM | SK-OV-3 > 50 µM | SNB-75 > 50 µM | SK-MEL-28 > 50 µM | MOLT-4 > 50 µM | SW-620 > 50 µM | UACC-62 > 50 µM | EKVX > 50 µM | M14 > 50 µM | KM12 > 50 µM | K562 > 50 µM | SF-268 > 50 µM

CC1(C)C(=O)CCC(=O)C(C)(C)C2=CC=C(O2)C(C)(C)C(=O)CCC(=O)C(C)(C)C2=CC=C1O2
inactive: COLO 205 > 100 µM | HCC 2998 > 100 µM | IGROV-1 > 100 µM | SK-OV-3 > 100 µM | SK-MEL-28 > 100 µM | MOLT-4 > 100 µM | SW-620 > 100 µM | EKVX > 100 µM | HT-29 > 100 µM | KM12 > 100 µM | K562 > 100 µM | SF-268 > 100 µM

CCOC(=O)Cc1c(Cc2[nH]c(C(=O)OCc3ccccc3)c(CC(=O)OCC)c2CC(=O)OCC)[nH]c(C(=O)OCc2ccccc2)c1CC(=O)OCC
inactive: COLO 205 > 100 µM | IGROV-1 > 100 µM | SK-OV-3 > 100 µM | SNB-75 > 100 µM | SK-MEL-28 > 100 µM | MOLT-4 > 100 µM | SW-620 > 100 µM | UACC-62 > 100 µM | M14 > 100 µM | HT-29 > 100 µM | K562 > 100 µM | SF-268 > 100 µM

CSC(=S)N(C)NC(=O)c1cccc(C(=O)NN(C)C(=S)SC)n1
inactive: COLO 205 > 100 µM | IGROV-1 8.2 µM | SNB-75 34.3 µM | SK-MEL-28 15.4 µM | MOLT-4 4.33 µM | SW-620 32.7 µM | UACC-62 14.3 µM | EKVX 16.1 µM | M14 14.6 µM | HT-29 3.06 µM | KM12 2.89 µM | K562 15.6 µM | SF-268 6.1 µM

S=C1NCCN1
inactive: COLO 205 > 100 µM | IGROV-1 > 100 µM | SK-OV-3 > 100 µM | SNB-75 > 100 µM | SK-MEL-28 > 100 µM | MOLT-4 > 100 µM | SW-620 > 100 µM | UACC-62 > 100 µM | EKVX > 100 µM | M14 > 100 µM | HT-29 > 100 µM | KM12 > 100 µM | K562 > 100 µM | SF-268 > 100 µM

COc1ccc(C(=O)C(c2ccc(OC)cc2)C2(O)C(=O)Nc3ccccc32)cc1 (centres undefined)
inactive: IGROV-1 > 100 µM | SK-OV-3 > 100 µM | SNB-75 67.5 µM | SK-MEL-28 > 100 µM | MOLT-4 > 100 µM | SW-620 > 100 µM | UACC-62 > 100 µM | EKVX > 100 µM | M14 > 100 µM | HT-29 94.6 µM | KM12 > 100 µM | K562 > 100 µM | SF-268 > 100 µM

COC(=O)C1=C(C)N(NC(=O)c2ccccc2)C(C)(O)C12CCOC2=O (centres undefined)
inactive: COLO 205 > 100 µM | HCC 2998 > 100 µM | IGROV-1 > 100 µM | SK-OV-3 > 100 µM | SK-MEL-28 > 100 µM | MOLT-4 > 100 µM | SW-620 > 100 µM | UACC-62 > 100 µM | EKVX > 100 µM | M14 > 100 µM | HT-29 > 100 µM | KM12 > 100 µM | K562 > 100 µM | SF-268 > 100 µM

NC(=O)NCc1c(C(N)=O)ncn1Cc1ccccc1
inactive: COLO 205 > 100 µM | HCC 2998 > 100 µM | IGROV-1 > 100 µM | SK-OV-3 > 100 µM | SNB-75 > 100 µM | SK-MEL-28 > 100 µM | MOLT-4 > 100 µM | SW-620 > 100 µM | UACC-62 > 100 µM | EKVX > 100 µM | M14 > 100 µM | HT-29 > 100 µM | K562 > 100 µM

CC(C)CCCC(C)[C@H]1CCC2[C@H]3C(CC[C@@]21C)[C@@]1(C)CCC=C[C@]12C[C@@H]2[C@@H]3O (some centres undefined)
inactive: COLO 205 > 100 µM | HCC 2998 > 100 µM | IGROV-1 > 100 µM | SK-OV-3 > 100 µM | SNB-75 > 100 µM | SK-MEL-28 > 100 µM | MOLT-4 > 100 µM | SW-620 > 100 µM | UACC-62 > 100 µM | EKVX > 100 µM | M14 > 100 µM | HT-29 > 100 µM | KM12 > 100 µM | SF-268 > 100 µM

CN(C)CCNc1nc(-c2cccs2)cc(-c2cccs2)n1
inactive: COLO 205 12.1 µM | HCC 2998 12.4 µM | IGROV-1 24.4 µM | SK-OV-3 > 10 µM | SNB-75 23.8 µM | SK-MEL-28 15.9 µM | MOLT-4 3 µM | SW-620 13.9 µM | UACC-62 19.1 µM | M14 12.4 µM | HT-29 7.5 µM | KM12 12.1 µM | K562 17.7 µM
